Here are results for two compounds from ChEMBL document CHEMBL5370604, “Identification of Micrococcin P2-Derivatives as Antibiotic Candidates against Two Gram-Positive Pathogens” (J Med Chem, 2023).

Structures are written as SMILES. Activity calls are given as the source filed them. The rule behind the calls is not given here.

Experiment [1] deals with Staphylococcus aureus. The experiment is described as follows: In vivo antibacterial activity against methicillin-resistant Staphylococcus aureus KCCM 40511 ATCC 33593 infected in soft-skin tissue BALB/c mouse infection model assessed as downregulation of IL-6 levels in wound area treated as ointment administered twice at 6 and 12 hrs and measured after 24 hrs by ELISA assay. The format is functional, organism-based. (In general: ELISA stands for enzyme-linked immunosorbent assay.)

For experiment [2], the system named is Staphylococcus aureus. The experiment is described as follows: In vivo antibacterial activity against methicillin-resistant Staphylococcus aureus KCCM 40511 ATCC 33593 infected in soft-skin tissue BALB/c mouse infection model assessed as downregulation of IL-1beta levels in wound area treated as ointment administered twice at 6 and 12 hrs and measured after 24 hrs by ELISA assay. The format is functional, organism-based.

Experiment [3] concerns Clostridioides difficile. The experiment is described as follows: Antibacterial activity against Clostridioides difficile ribotype 027 infected in colitis induced C57BL/6J mouse assessed as survival rate at 30 mg/kg, po qd pretreated with clindamycin followed by […] infection and compound addition measured on day 5. It is filed as functional. The settings on record: ribotype 027, 120 h, time 5 day.

The subject of experiment [4] is Clostridioides difficile. The experiment is described as follows: Antibacterial activity against Clostridioides difficile ribotype 027 infected in colitis induced C57BL/6J mouse assessed as increase in survival rate without recurrence at 30 mg/kg, po qd pretreated with clindamycin followed by […] infection and compound addition measured on day 10 to day 11. It is filed as functional, organism-based. The note with it: time 10-11 day.

Regarding `C/C=C(\NC(=O)c1csc(-c2csc(-c3ccc4c(n3)-c3csc(n3)[C@H]([C@@H](C)O)NC(=O)c3csc(n3)[C@H](C(C)C)NC(=O)c3csc(n3)/C(=C/C)NC(=O)[C@H]([C@@H](C)O)NC(=O)c3csc-4n3)n2)n1)C(=O)NCCN1CCN(C(C)C)CC1`, the result with Staphylococcus aureus [1] and with Staphylococcus aureus [2] was Active.

As for `CCc1c(Cl)c(O)c(Cl)c(O)c1C(=O)O[C@H]1[C@H](O)[C@H](OC)[C@H](OC/C2=C\C=C\C[C@H](O)/C(C)=C/[C@H](CC)[C@@H](O[C@@H]3OC(C)(C)[C@@H](OC(=O)C(C)C)[C@H](O)[C@@H]3O)/C(C)=C/C(C)=C/C[C@@H]([C@@H](C)O)OC2=O)O[C@@H]1C` [FIDAXOMICIN], the survival at 30 mg/kg in the experiment with Clostridioides difficile [3] was found to be 40%. Further, in the experiment on Clostridioides difficile [4], the outcome was inactive.
